Several values for one entry are separate records, joined by “and”; a condition that tells them apart may be missing. Identical values can stand only once. Like-named read-outs stand apart in the source and are kept apart here.

In assay [1] the test system is non-growing S. aureus DSM2569. Briefly: Dilution-regrowth assay (OD600, start-growth-time) on stationary-phase S. aureus. The format is cell-based, Staphylococcus aureus. The note with it: S. aureus; for EC50: regrowth delay of non-growing bacteria, 1:4 CA-MHB pH 7.4, 24 h treatment, OD600 8 h after dilution. On the procedure: (§1) The cultures were grown and treated for 24 h in 1:4 CA-MHB (pH 7.4).
This approach allowed us to capture the time when cultures reached a threshold optical density (start-growth-time, SGT[15]).
The cultures were incubated for 24 h in non-baffled Erlenmeyer flasks at 37 °C with shaking at 200 rpm.
For P. aeruginosa and S. aureus, dose–response analysis was conducted in 96-well plates with a 200 μl assay volume, following the procedure used for screening assay validation experiments. […] Stock solutions were prepared and stored according to the manufacturers’ instructions, then diluted in 10% DMSO before use. Cultures were incubated for 24 h in 1:4 diluted CA-MHB medium under the same conditions used for UPEC cultivation. In preliminary experiments, each compound was tested at a concentration of 20 μM in the dilution-regrowth assay with 4 technical replicates. Regrowth was monitored using a microplate reader at 37 °C with continuous shaking, and OD600 was recorded every 20 min. The time at which OD600 exceeded the threshold of 0.12 was recorded as the Start_Growth-Time.
Statistical significance of the drug effects was assessed using a one-way ANOVA followed by Dunnett’s test, comparing each treatment to the drug-free control. Statistical significance of the differences in chemical characteristics between the hit compounds and the Prestwick library was assessed using a Mann–Whitney test. Statistical significance was set at P ≤ 0.05. A five-parameter logistic equation was used for asymmetric sigmoidal curve fitting and for EC50 and IC50 determination. The Venn diagram in Fig. 1F was prepared using BioVenn web application. Characteristics of the chemical and physical properties of Prestwick library compounds were obtained from Supplementary Table S1 from reference. Characteristics of the hit compounds not included in the Prestwick library were retrieved from the PubChem database.

Assay [2] has as its system non-growing UPEC CFT073. Briefly: Dose-dependent killing analysis (CFU spot-plating) of stationary-phase UPEC. The format is cell-based, Escherichia coli. The note with it: for log10(CFU/ml) after treatment: individual replicates. The essentials: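 Killing assessed by CFU counts: overnight 37 °C LB agar spot plates (10 μl drops of 10-fold PBS dilutions) scored at the lowest dilution with distinct colonies. Samples were compound-treated non-growing UPEC CFT073, 200 μl per well. Performed as three biological replicates.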

Assay [3] relates to non-growing P. aeruginosa DSM1117. Briefly: Dose-dependent killing analysis (CFU spot-plating) of stationary-phase P. aeruginosa. The format is cell-based, Pseudomonas aeruginosa. The note with it: for log10(CFU/ml) after treatment / killing, average Δlog10(CFU/ml) / log10(CFU/ml) after treatment, replicate 1 / log10(CFU/ml) after treatment, replicate 2 / log10(CFU/ml) after treatment, replicate 3: P. aeruginosa; for log10(CFU/ml) after treatment: individual replicates. The method, then:
as §1
(§2) For survival analysis, bacteria were cultivated as described for the dose–response dilution-regrowth assay. Assays with UPEC were conducted at the CBCS screening facility using 96-well plates with a 200 μl sample volume, and compounds were dispensed using the Echo® (Labcyte) system. P. aeruginosa and S. aureus samples were treated according to the protocol used for the dilution-regrowth experiments. Treated samples were serially diluted 10-fold in PBS, and 10 μl drops were spot-plated onto rectangular LB agar plates using either a Beckman NXP robot (for UPEC) or an Integra VIAFLO96 electronic pipette (for P. aeruginosa and S. aureus). The LB agar plates were incubated overnight at 37 °C and scanned. Colonies were counted at the spots of the lowest dilution where individual colonies could be accurately distinguished. Each colony was manually marked on a separate image layer using the GNU Image Manipulation Program, and counted using NIST’s Integrated Colony Enumerator (NICE 1.4) software. The experiments were performed in three biological replicates.

The test system of assay [4] is non-growing S. aureus DSM2569. Briefly: Dose-dependent killing analysis (CFU spot-plating) of stationary-phase S. aureus.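 Further: drug concentration in µM.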 The format is cell-based, Staphylococcus aureus. The note with it: S. aureus, vs 9,097 before treatment. On the procedure: To determine the spectrum of activity of the compounds that were effective against non-growing UPEC, we further assessed their efficacy against the well-characterized Gram-negative and Gram-positive reference strains P. aeruginosa DSM1117 and S. aureus DSM2569, respectively. The cultures were grown and treated for 24 h in 1:4 CA-MHB (pH 7.4). […].
as §2

The mark [5] stands for this setting: E. coli in LPM (pH 5.5), drug concentration 0.25.
Where [6] appears, read: E. coli in LPM (pH 5.5), drug concentration 0.5.
[7] abbreviates: E. coli in LPM (pH 5.5), drug concentration 1.
Setting [8] is: E. coli in LPM (pH 5.5), drug concentration 2.5.
Setting [9] is: E. coli in LPM (pH 5.5), drug concentration 5.
The mark [10] stands for this setting: E. coli in LPM (pH 5.5), drug concentration 10.

On to Plicamycin, for which the “Regrowth, OD600 at 6h or 8h after dilution into drug-free medium (average)” value in assay [1] (drug concentration 0.1) was 0.578; in assay [1] (drug concentration 0.5), 0.347; in assay [1] (drug concentration 2.5), 0.205; in assay [1] (drug concentration 10), 0.143. The EC50 in assay [1] was 359 nM.

Consider `CO[C@H]1/C=C/O[C@@]2(C)Oc3c(C)c(O)c4c(O)c(c(/C=N/N5CCN(C)CC5)c(O)c4c3C2=O)NC(=O)/C(C)=C\C=C\[C@H](C)[C@H](O)[C@@H](C)[C@@H](O)[C@@H](C)[C@H](OC(C)=O)[C@@H]1C` [Rifampicin], for which the EC50 in assay [1] (Staphylococcus aureus, DSM2569, read-out: EC50) worked out at 43 nM.

Regarding `CO/N=C1\CN(c2nc3c(cc2F)c(=O)c(C(=O)O)cn3C2CC2)CC1CN` (stereo not drawn) [Gemifloxacin], the “log10(CFU/ml) after treatment” value in assay [2] (E. coli in 1:4 CA-MHB (pH 7.4), concentration 0.25) was 9.342 log10(CFU/ml) and 9.204 log10(CFU/ml) and 8.505 log10(CFU/ml); in assay [2] (E. coli in 1:4 CA-MHB (pH 7.4), concentration 0.5), 8.845 log10(CFU/ml) and 8.778 log10(CFU/ml) and 8.000 log10(CFU/ml); in assay [2] (E. coli in 1:4 CA-MHB (pH 7.4), concentration 1), 8.699 log10(CFU/ml) and 8.079 log10(CFU/ml) and 7.301 log10(CFU/ml); in assay [2] (E. coli in 1:4 CA-MHB (pH 7.4), concentration 2.5) it was 8.230 log10(CFU/ml) and 7.602 log10(CFU/ml) and 7.301 log10(CFU/ml); in assay [2] (E. coli in 1:4 CA-MHB (pH 7.4), concentration 5), 7.903 log10(CFU/ml) and 7.415 log10(CFU/ml) and 7.322 log10(CFU/ml); in assay [2] (E. coli in 1:4 CA-MHB (pH 7.4), concentration 10) it was 8.146 log10(CFU/ml) and 7.041 log10(CFU/ml) and 6.602 log10(CFU/ml). The “log10(CFU/ml) after treatment” value in assay [2] (E. coli in LPM (pH 5.5), concentration 0.25) is 6.778 log10(CFU/ml) and 7.146 log10(CFU/ml) and 8.322 log10(CFU/ml); in assay [2] (E. coli in LPM (pH 5.5), concentration 0.5), 7.000 log10(CFU/ml) and 7.255 log10(CFU/ml) and 8.301 log10(CFU/ml); in assay [2] (E. coli in LPM (pH 5.5), concentration 1) it was 7.041 log10(CFU/ml) and 7.362 log10(CFU/ml) and 8.079 log10(CFU/ml); in assay [2] (E. coli in LPM (pH 5.5), concentration 2.5) it was 6.778 log10(CFU/ml) and 7.255 log10(CFU/ml) and 8.230 log10(CFU/ml); in assay [2] (E. coli in LPM (pH 5.5), concentration 5), 7.230 log10(CFU/ml) and 7.380 log10(CFU/ml) and 8.146 log10(CFU/ml); in assay [2] (E. coli in LPM (pH 5.5), concentration 10) it was 7.176 log10(CFU/ml) (2×) and 8.230 log10(CFU/ml). Besides, the “log10(CFU/ml) after treatment” value in assay [3] (concentration 0.1) was 8.477 log10(CFU/ml) and 8.778 log10(CFU/ml) and 8.114 log10(CFU/ml); in assay [3] (concentration 0.5) it was 7.699 log10(CFU/ml) (2×) and 7.477 log10(CFU/ml); in assay [3] (concentration 2.5), “=<4 log10(CFU/ml) (2×) and 4.954 log10(CFU/ml)”; in assay [3] (concentration 10), “=<4 log10(CFU/ml) (2×) and 4.477 log10(CFU/ml)”. Also, the “killing, average Δlog10(CFU/ml)” value is 0.431 log10(CFU/ml) in assay [3] (concentration 0.1, vs CFU before treatment); 1.262 log10(CFU/ml) in assay [3] (concentration 0.5, vs CFU before treatment); 4.569 log10(CFU/ml) in assay [3] (concentration 2.5, vs CFU before treatment); 4.728 log10(CFU/ml) in assay [3] (concentration 10, vs CFU before treatment). The “reduction of bacterial counts, non-growing P. aeruginosa” value in assay [3] (at 2.5 µM, 1:4 CA-MHB pH 7.4, 24 h treatment) was “more than four”.

Consider `COc1c(N2CCNC(C)C2)c(F)cc2c(=O)c(C(=O)O)cn(C3CC3)c12` (stereo not drawn) [Gatifloxacin], for which the “bactericidal effect against stationary-phase UPEC cultures” value in assay [2] (20 µM, preliminary experiments) is “bactericidal effects”. Further, the “average Δlog10(CFU/ml) (killing)” value in assay [4] (drug conc. 0.1) is -0.121 log10(CFU/ml); in assay [4] (drug conc. 0.5), -0.040 log10(CFU/ml); in assay [4] (drug conc. 2.5) it was 0.371 log10(CFU/ml); in assay [4] (drug conc. 10), 0.946 log10(CFU/ml).

For `CC(=O)[O][Pt]([NH2])([Cl])([Cl])([NH]C1CCCCC1)[O]C(C)=O` [Satraplatin], the “killing, average Δlog10(CFU/ml)” value in assay [2] (setting [5]) is 0.465 log10(CFU/ml); in assay [2] (setting [6]) it was 0.567 log10(CFU/ml); in assay [2] (setting [7]), 0.828 log10(CFU/ml); in assay [2] (setting [8]), 1.360 log10(CFU/ml); in assay [2] (setting [9]), 1.695 log10(CFU/ml); in assay [2] (setting [10]) it was 2.758 log10(CFU/ml). For the same compound, the “killing, average Δlog10(CFU/ml)” value in assay [3] (drug concentration 0.1) is -0.012 log10(CFU/ml); in assay [3] (drug concentration 0.5), 0.420 log10(CFU/ml); in assay [3] (drug concentration 2.5), 1.880 log10(CFU/ml); in assay [3] (drug concentration 10), 3.310 log10(CFU/ml). The “log10(CFU/ml) after treatment, replicate 1” value in assay [2] (setting [5]) was 6.778 log10(CFU/ml); in assay [2] (setting [6]), 7.041 log10(CFU/ml); in assay [2] (setting [7]), 6.778 log10(CFU/ml); in assay [2] (setting [8]), 6.954 log10(CFU/ml); in assay [2] (setting [9]) it was 6.146 log10(CFU/ml); in assay [2] (setting [10]), 5.778 log10(CFU/ml). In addition, the “log10(CFU/ml) after treatment, replicate 1” value in assay [3] (drug concentration 0.1) was 8.699 log10(CFU/ml); in assay [3] (drug concentration 0.5), 8.477 log10(CFU/ml); in assay [3] (drug concentration 2.5) it was 7.845 log10(CFU/ml); in assay [3] (drug concentration 10), 5.000 log10(CFU/ml). Besides, the “log10(CFU/ml) after treatment, replicate 2” value in assay [2] (setting [5]) is recorded as 6.431 log10(CFU/ml); in assay [2] (setting [6]), 6.079 log10(CFU/ml); in assay [2] (setting [7]) it was 6.176 log10(CFU/ml); in assay [2] (setting [8]), 5.903 log10(CFU/ml); in assay [2] (setting [9]) it was 5.778 log10(CFU/ml); in assay [2] (setting [10]), “=<4 log10(CFU/ml)”. The “log10(CFU/ml) after treatment, replicate 2” value is recorded as 9.301 log10(CFU/ml) in assay [3] (drug concentration 0.1), 8.845 log10(CFU/ml) in assay [3] (drug concentration 0.5), 8.477 log10(CFU/ml) in assay [3] (drug concentration 2.5) and 6.778 log10(CFU/ml) in assay [3] (drug concentration 10). For the same compound, the “log10(CFU/ml) after treatment, replicate 3” value is recorded as 7.447 log10(CFU/ml) in assay [2] (setting [5]); 7.230 log10(CFU/ml) in assay [2] (setting [6]); 6.613 log10(CFU/ml) in assay [2] (setting [7]); 5.114 log10(CFU/ml) in assay [2] (setting [8]); 5.041 log10(CFU/ml) in assay [2] (setting [9]); “=<4 log10(CFU/ml)” in assay [2] (setting [10]). Moreover, the “log10(CFU/ml) after treatment, replicate 3” value in assay [3] (drug concentration 0.1) is 8.699 log10(CFU/ml); in assay [3] (drug concentration 0.5), 8.079 log10(CFU/ml); in assay [3] (drug concentration 2.5), 4.699 log10(CFU/ml); in assay [3] (drug concentration 10), 4.954 log10(CFU/ml).

The values are drawn from article PMC11992225, “Antibacterial compounds against non-growing and intracellular bacteria” (npj Antimicrobials and Resistance, 2025).
